Data on 1 compound can be found in publication PMC12257299 (RSC Advances, 2025).

For orientation: IC50 means the concentration needed to halve the response being measured. The low end stands for higher potency, the high end for lower potency.

In the experiment the target is GSK-3β (Homo sapiens, UniProt P49841). The experiment in a line: ADP-Glo kinase assay with Promega GSK-3β enzyme. Type of experiment: biochemical. Background: In ADP-Glo the light output rises with the ADP produced.
Sequence of GSK-3β (P49841 whole entry): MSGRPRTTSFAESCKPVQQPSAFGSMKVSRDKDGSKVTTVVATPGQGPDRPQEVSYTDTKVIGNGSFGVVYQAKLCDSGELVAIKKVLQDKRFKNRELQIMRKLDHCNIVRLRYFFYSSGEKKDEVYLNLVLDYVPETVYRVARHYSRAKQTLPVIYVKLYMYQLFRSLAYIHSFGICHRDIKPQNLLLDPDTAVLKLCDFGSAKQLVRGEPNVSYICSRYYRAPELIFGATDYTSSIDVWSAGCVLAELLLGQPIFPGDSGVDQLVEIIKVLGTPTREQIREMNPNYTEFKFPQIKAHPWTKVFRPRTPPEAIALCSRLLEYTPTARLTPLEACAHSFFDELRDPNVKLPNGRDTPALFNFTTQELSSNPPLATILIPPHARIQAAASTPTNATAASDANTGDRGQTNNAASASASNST

`COc1ccc(Cn2cc(CN3C(=O)C(=NNc4ccccc4)c4ccccc43)nn2)cc1` [6Ec, 1-((1-(4-Methoxybenzyl)-1H-1,2,3-triazol-4-yl)methyl)-3-(2-phenylhydrazono) indolin-2-one]: half-maximal inhibition (IC50) was put at 59.8 µM.
